Measurements reported in the NIST ThermoML archive (doi:10.1021/je400529k).

Tests used:
[1] = xn = mol fraction of the nth substance listed; conditions: 101 kPa, Liquid; for viscosity: Capillary tube (Ostwald / Ubbelohde) method; for mass density: Vibrating tube method
[2] = refractive index (Na D-line) (dimensionless); xn = mol fraction of the nth substance listed; conditions: 101 kPa, Liquid, Standard Abbe refractometry

C1C[C@@H]2[C@H]3CC[C@H](C3)[C@@H]2C1 [exo-tetrahydrodicyclopentadiene] + C1CCCCC1
Conditions	mass density, [1] [kg/m3]	refractive index, [2]	viscosity, [1] [mPa·s]
293.15 K, x1 = 0.0998	799.53	1.4357	1.13
293.15 K, x1 = 0.2006	819.11	1.4426	1.296
293.15 K, x1 = 0.3003	837.1	1.4495	1.462
293.15 K, x1 = 0.3996	853.82	1.4564	1.633
293.15 K, x1 = 0.4987	869.42	1.4624	1.814
293.15 K, x1 = 0.6005	884.43	1.4683	2.016
293.15 K, x1 = 0.7002	898.3	1.4732	2.231
293.15 K, x1 = 0.8008	911.5	1.4781	2.463
293.15 K, x1 = 0.9	923.87	1.4829	2.72
293.15 K, x1 = 1	935.72	1.4874	2.992
298.15 K, x1 = 0.0998	794.92	–	1.032
298.15 K, x1 = 0.2006	814.56	–	1.18
298.15 K, x1 = 0.3003	832.65	–	1.327
298.15 K, x1 = 0.3996	849.45	–	1.481
298.15 K, x1 = 0.4987	865.15	–	1.645
298.15 K, x1 = 0.6005	880.23	–	1.828
298.15 K, x1 = 0.7002	894.2	–	2.024
298.15 K, x1 = 0.8008	907.48	–	2.236
298.15 K, x1 = 0.9	919.92	–	2.466
298.15 K, x1 = 1	931.84	–	2.71
303.15 K, x1 = 0.0998	790.27	1.4305	0.948
303.15 K, x1 = 0.2006	809.99	1.4373	1.08
303.15 K, x1 = 0.3003	828.19	1.4449	1.212
303.15 K, x1 = 0.3996	845.07	1.4512	1.351
303.15 K, x1 = 0.4987	860.86	1.4582	1.5
303.15 K, x1 = 0.6005	876.06	1.4633	1.668
303.15 K, x1 = 0.7002	890.08	1.4689	1.846
303.15 K, x1 = 0.8008	903.43	1.4739	2.037
303.15 K, x1 = 0.9	915.95	1.4789	2.248
303.15 K, x1 = 1	927.94	1.4831	2.467
308.15 K, x1 = 0.0998	785.6	–	0.874
308.15 K, x1 = 0.2006	805.41	–	0.993
308.15 K, x1 = 0.3003	823.69	–	1.113
308.15 K, x1 = 0.3996	840.68	–	1.239
308.15 K, x1 = 0.4987	856.56	–	1.375
308.15 K, x1 = 0.6005	871.85	–	1.528
308.15 K, x1 = 0.7002	885.97	–	1.691
308.15 K, x1 = 0.8008	899.4	–	1.866
308.15 K, x1 = 0.9	911.98	–	2.056
308.15 K, x1 = 1	924.02	–	2.255
313.15 K, x1 = 0.0998	780.9	1.4238	0.808
313.15 K, x1 = 0.2006	800.82	1.4319	0.917
313.15 K, x1 = 0.3003	819.19	1.439	1.026
313.15 K, x1 = 0.3996	836.28	1.4456	1.141
313.15 K, x1 = 0.4987	852.26	1.453	1.267
313.15 K, x1 = 0.6005	867.63	1.4583	1.407
313.15 K, x1 = 0.7002	881.85	1.4642	1.555
313.15 K, x1 = 0.8008	895.35	1.4689	1.715
313.15 K, x1 = 0.9	907.1	1.4737	1.888
313.15 K, x1 = 1	920.11	1.4786	2.069
318.15 K, x1 = 0.0998	–	–	0.751
318.15 K, x1 = 0.2006	–	–	0.848
318.15 K, x1 = 0.3003	–	–	0.949
318.15 K, x1 = 0.3996	–	–	1.055
318.15 K, x1 = 0.4987	–	–	1.169
318.15 K, x1 = 0.6005	–	–	1.298
318.15 K, x1 = 0.7002	–	–	1.435
318.15 K, x1 = 0.8008	–	–	1.581
318.15 K, x1 = 0.9	–	–	1.741
318.15 K, x1 = 1	–	–	1.907
